Experimental findings from ChEMBL document CHEMBL4613297, “Peptides Mimicking the β7/β8 Loop of HIV-1 Reverse Transcriptase p51 as "Hotspot-Targeted" Dimerization Inhibitors” (ACS Med Chem Lett, 2020) are described below.

The source made the active and inactive calls. The calls are words filed in the database; no cut-off is given here. Where a SMILES comes first, the peptide text is derived from it. Bridges are numbered along the chain shown (N, C = ends).

Test [1] has as its target Human immunodeficiency virus type 1 reverse transcriptase (Human immunodeficiency virus 1) (UniProt Q72547). Put plainly: Inhibition of recombinant HIV-1 group M subtype B reverse transcriptase p51/p66 expressed in Escherichia coli M15 assessed as change in melting temperature at 100 uM incubated for 1 hr by sypro orange dye based differential scanning fluorimetric analysis. To be noted: HIV-1 M:B. Background: In DSF a fluorescence change marks the thermal transition of the protein.

Test [2] addresses T1, Human immunodeficiency virus type 1 reverse transcriptase (Human immunodeficiency virus 1, UniProt Q72547). Description: Inhibition of HIV-1 reverse transcriptase His-tagged p51 heterodimerization with HIV-1 reverse transcriptase p66 incubated for 16 hrs by ELISA. A general note: In an ELISA, binding on a coated surface is turned into a signal by an enzyme label.
Test [3] concerns the target Human immunodeficiency virus type 1 reverse transcriptase (Human immunodeficiency virus 1) (UniProt Q72547). Put plainly: Inhibition of RNase H activity of recombinant HIV-1 BH10 reverse transcriptase p51/p66 expressed in Escherichia coli at 100 uM. Particulars: Human immunodeficiency virus type 1 BH10.
Test [4] deals with T1, Human immunodeficiency virus type 1 reverse transcriptase. Put plainly: Inhibition of recombinant HIV-1 BH10 reverse transcriptase p51/p66 expressed in Escherichia coli assessed as reduction in recovery of DNA polymerase activity preincubated with 15% acetonitrile for 15 hrs followed by compound addition and acetonitrile reduced to <1% using poly(rA)/oligo(dT)16 as template/primer in presence of [3H]dTTP. Set-up: species or system Human immunodeficiency virus type 1 BH10.

Test [5] concerns the target Human immunodeficiency virus type 1 reverse transcriptase (Human immunodeficiency virus 1) (UniProt Q72547). Put plainly: Inhibition of recombinant HIV-1 BH10 reverse transcriptase p51/p66 expressed in Escherichia coli assessed as reduction in recovery of DNA polymerase activity at 200 uM preincubated with 15% acetonitrile for 15 hrs followed by compound addition and acetonitrile reduced to <1% using poly(rA)/oligo(dT)16 as template/primer in presence of [3H]dTTP relative to control. To be noted: Human immunodeficiency virus type 1 BH10.

Test [6] concerns the target T1, Human immunodeficiency virus type 1 reverse transcriptase. Description: Inhibition of recombinant HIV-1 BH10 reverse transcriptase p51/p66 expressed in Escherichia coli preincubated for 10 mins followed by D38/25PGA template-primer addition and measured after 10 to 30 secs by denaturing PAGE based single nucleotide incorporation assay. The arrangement: species or system Human immunodeficiency virus type 1 BH10.

The ΔTm is the shift of the melting midpoint relative to a reference. Regarding `Cc1cn([C@@H]2O[C@H](CO[Si](C)(C)C(C)(C)C)[C@]3(C=CS(=O)(=O)O3)[C@H]2O[Si](C)(C)C(C)(C)C)c(=O)[nH]c1=O`, in test [1], the ΔTm is -1.4 °C.
Usually IC50 stands for the midpoint of a concentration-inhibition curve. By inhibition is commonly meant the change of the read-out against control, counted positive when it falls. As to `CC[C@H](C)[C@@H]1NC(=O)CNC(=O)[C@@H]2CCCN2C(=O)[C@H]([C@@H](C)O)NC(=O)C(CCC(=O)O)NC(=O)[C@H](CC(N)=O)NC(=O)C(CC(N)=O)NC(=O)[C@@H]([C@@H](C)CC)NC(=O)[C@H](CO)NC(=O)[C@@H]2CCCN2C(=O)[C@H]([C@@H](C)CC)NC(=O)[C@@H](N)CSSC[C@@H](C(=O)O)NC1=O` (stereo partly drawn), the IC50 in test [2] is 137 µM; in test [4] it was greater than 250 µM; in test [6], greater than 145 µM. In addition, in test [3], the inhibition result was “inactive”. For the same molecule, the ΔTm in test [1] was -14.5 °C. The inhibition in test [5] was less than 5%.
In the case of `CC[C@H](C)[C@@H]1NC(=O)[C@H](CO)NC(=O)[C@H](N)CSSC[C@@H](C(=O)O)NC(=O)[C@@H]2CCCN2C(=O)[C@H]([C@@H](C)O)NC(=O)[C@H](CCC(=O)O)NC(=O)[C@H](CC(N)=O)NC(=O)[C@H](CC(N)=O)NC1=O`, the IC50 in test [2] is 61 µM; in test [4], greater than 250 µM; in test [6], greater than 145 µM. Moreover, the inhibition result in test [3] is “inactive”. The ΔTm in test [1] was -15.8 °C. Also, the inhibition in test [5] turned out to be 43%.
Turning to `CC[C@H](C)[C@H](NC(=O)CNC(=O)[C@@H]1CCCN1C(=O)[C@@H](NC(=O)[C@H](CCC(=O)O)NC(=O)[C@H](CC(N)=O)NC(=O)[C@H](CC(N)=O)NC(=O)[C@@H](NC(=O)[C@H](CO)NC(=O)[C@@H]1CCCN1C(=O)[C@@H](NC(=O)[C@@H](NC(=O)[C@@H](N)Cc1ccccc1)[C@@H](C)O)[C@@H](C)CC)[C@@H](C)CC)C(C)O)C(=O)N[C@@H](CCCNC(=N)N)C(=O)N[C@@H](Cc1ccc(O)cc1)C(=O)O` (single isomer, unassigned), in test [3], the inhibition result is “inactive”. Also, the ΔTm in test [1] was -15.6 °C. Also, the IC50 in test [6] is greater than 145 µM.
Take `CC[C@H](C)[C@@H]1NC(=O)[C@@H](N)CSSC[C@@H](C(=O)O)NC(=O)[C@H](CCC(=O)O)NC(=O)[C@H](CC(N)=O)NC(=O)[C@H](CC(N)=O)NC1=O` (H-CINNEC-OH; disulfide 1-6): the IC50 in test [2] turned out to be 37 µM; in test [4] it was 203 µM; in test [6], 109 µM. The inhibition entry in test [3] was “inactive”. For the same molecule, the ΔTm in test [1] is -15.8 °C.
On to `CC[C@H](C)[C@@H]1NC(=O)[C@H](CCCNC(=N)N)NC(=O)[C@H](Cc2ccc(O)cc2)NC(=O)[C@H]2CCCN2C(=O)[C@@H]2CCCN2C(=O)[C@H](Cc2ccccc2)NC(=O)[C@H]([C@H](C)O)NC(=O)[C@H]([C@@H](C)CC)NC(=O)[C@@H]2CCCN2C(=O)[C@H](CC(N)=O)NC(=O)[C@H]([C@@H](C)CC)NC(=O)[C@@H](CO)NC(=O)[C@H](CC(N)=O)NC(=O)[C@@H](CCC(=O)O)NC(=O)[C@H]([C@H](C)O)NC(=O)[C@@H]2CCCN2C(=O)CNC1=O`, for which the inhibition result in test [3] is “inactive”. Moreover, the ΔTm in test [1] was -15 °C. Further, the concentration for half-maximal inhibition (IC50) in test [6] was greater than 145 µM.
For the molecule H-IPSINNETPGI-OH, the IC50 in test [2] is greater than 150 µM; in test [6] it was greater than 145 µM. Besides, in test [3], the inhibition entry was “inactive”. Besides, the ΔTm in test [1] is -13.6 °C.
